Consider eleven molecules from patent US20240199618A1, “NOVEL N-ACYL-[3-SUBSTITUTED]-[8-SUBSTITUTED]-5,6-DIHYDRO-[1,2,4]TRIAZOLO[4,3-a]PYRAZINES AS SELECTIVE NK-3 RECEPTOR ANTAGONISTS, PHARMACEUTICAL COMPOSITION, METHODS FOR USE IN NK-3 RECEPTOR-MEDIATED DISORDERS” (Ogeda SA, priority 2013, published 2024).

pIC50, pKi: −log10 of the molar value. Like-named read-outs stand apart in the source and are kept apart here. Bounds are passed on as bounds.

The subject of one series is plasma protein. In words: Determination of plasma protein binding (equilibrium dialysis, RED). Format: in vitro ADME. The following applies: 4 hours at 37° C. The text has this:
Determination of plasma protein binding The pharmacokinetic and pharmacodynamic properties of chemicals/drugs are largely a function of the reversible binding of chemicals to plasma or serum proteins. […] Consequently, the extent of the plasma protein binding (PPB) of a compound influences its action as well as its distribution and elimination.
The determination of plasma protein binding (PPB) of a compound is enabled by equilibrium dialysis, an accepted and standard method for reliable estimation of the non-bound drug fraction in plasma. RED (Rapid Equilibrium Dialysis) device insert is made of two side-by-side chambers separated by an O-ring-sealed vertical cylinder of dialysis membrane (MWCO ˜8,000). […] After 4 hours incubation at 37° C. under shaking, an aliquot is removed from each chamber and analyzed by a LC-MS/MS procedure enables the determination of both free and bound drug.
The “free fraction” may be calculated as 100%−% rPPB (i.e. the complementary percentage of that disclosed in Table 4, corresponding to the drug concentration that is unbound and therefore available to engage biological target and elicit pharmacological activity).

Series [1] deals with T1, human NK-3 receptor (Homo sapiens (Human), UniProt P29371). In words: Aequorin functional assay with human NK-3 receptor (antagonist testing vs NKA). Format: cell-based. The following applies: CHO cells, NKA at EC80 (3 nM); read-out: Functional assay: Aequorin assay with human NK-3 receptor hNK-3-AEQ (antagonist IC50). As to the method: Aequorin Assay with Human NK-3 Receptor
T1 sequence (P29371 whole entry): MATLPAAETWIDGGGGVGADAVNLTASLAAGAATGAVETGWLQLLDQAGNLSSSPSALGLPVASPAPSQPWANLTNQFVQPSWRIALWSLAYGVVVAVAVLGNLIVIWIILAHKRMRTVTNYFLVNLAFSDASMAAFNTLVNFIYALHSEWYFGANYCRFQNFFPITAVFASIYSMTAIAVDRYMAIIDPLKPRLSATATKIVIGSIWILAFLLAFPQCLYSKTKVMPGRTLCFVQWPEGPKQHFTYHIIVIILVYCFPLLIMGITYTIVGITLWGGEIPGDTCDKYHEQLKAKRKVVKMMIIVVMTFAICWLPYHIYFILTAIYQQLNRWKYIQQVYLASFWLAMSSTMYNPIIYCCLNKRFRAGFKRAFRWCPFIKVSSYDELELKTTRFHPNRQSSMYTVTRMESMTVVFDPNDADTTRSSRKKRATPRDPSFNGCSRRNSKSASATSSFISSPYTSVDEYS
Changes in intracellular calcium levels are a recognized indicator of G protein-coupled receptor activity. The efficacy of compounds of the invention to inhibit NKA-mediated NK-3 receptor activation was assessed by an in vitro Aequorin functional assay. Chinese Hamster Ovary recombinant cells expressing the human NK-3 receptor and a construct that encodes the photoprotein apoaequorin were used for this assay. In the presence of the cofactor coelenterazine, apoaequorin emits a measurable luminescence that is proportional to the amount of intracellular (cytoplasmic) free calcium.
The antagonist activity of compounds of the invention is measured following pre-incubation (3 minutes) of the compound (at various concentrations) with the cells, followed by addition of the reference agonist (NKA) at a final concentration equivalent to the EC80 (3 nM) and recording of emitted light (FDSS 6000 Hamamatsu) over the subsequent 90-second period. The intensity of the emitted light is integrated using the reader software. Compound antagonist activity is measured based on the concentration-dependent inhibition of the luminescence response to the addition of Neurokinin A.

Series [2] has as its target T1, human NK-3 receptor. In words: 3H-SB222200 binding competition assay with human NK-3 receptor. As to the method: The affinity of compounds of the invention for the human NK-3 receptor was determined by measuring the ability of compounds of the invention to competitively and reversibly displace a well-characterized NK-3 radioligand in a concentration-dependent manner.
^3H-SB222200 Binding Competition Assay with Human NK-3 Receptor
Membranes were prepared from Chinese hamster ovary recombinant cells stably expressing the human NK-3 receptor. The membranes were incubated with 5 nM ^3H-SB222200 (ARC) in a HEPES 25 mM/NaCl 0.1M/CaCl2 1 mM/MgCl2 5 mM/BSA 0.5%/Saponin 10 μg/ml buffer at pH 7.4 and various concentrations of compounds of the invention. The amount of ^3H-SB222200 bound to the receptor was determined after filtration by the quantification of membrane associated radioactivity using the TopCount-NXT reader (Packard).

A further series addresses human NK-2 receptor (Homo sapiens (Human), UniProt P21452). The experiment in a line: Selectivity assay: [125I]-Neurokinin A binding, human NK-2 receptor. The following applies: 0.1 nM [125I]-Neurokinin A, CHO membranes; read-out: hNK-2 (Ki). As to the method: The affinity of compounds of the invention for the NK-2 receptor was evaluated in CHO recombinant cells which express the human NK-2 receptor. Membrane suspensions were prepared from these cells. […] Binding assays were performed in a 25 mM HEPES/1 mM CaCl2)/5 mM MgCl2/0.5% BSA/10 μg/ml saponin, at pH 7.4. […] The radioactivity retained on the filters was measured by using the TopCount-NXT reader (Packard).

For the next series, the target named is human NK-1 receptor (Homo sapiens (Human), UniProt P25103). In words: Selectivity assay: [3H] substance P binding, human NK-1 receptor. The following applies: 2 nM [3H] substance P, CHO membranes; read-out: hNK-1 (Ki). As to the method:
Selectivity of the compounds of the invention was determined over the other human NK receptors, namely NK-1 and NK-2 receptors.
The affinity of compounds of the invention for the NK-1 receptor was evaluated in CHO recombinant cells which express the human NK-1 receptor. Membrane suspensions were prepared from these cells. The following radioligand: [^3H] substance P (PerkinElmer Cat #NET111520) was used in this assay. Binding assays were performed in a 50 mM Tris/5 mM MnCl2/150 mM NaCl/0.1% BSA at pH 7.4. Binding assays consisted of 25 μl of membrane suspension (approximately 5 μg of protein/well in a 96 well plate), 50 μl of compound or reference ligand (Substance P) at increasing concentrations (diluted in assay buffer) and 2 nM [^3H] substance P. The plate was incubated 60 min at 25° C. in a water bath and then filtered over GF/C filters (Perkin Elmer, 6005174, presoaked in 0.5% PEI for 2 h at room temperature) with a Filtration unit (Perkin Elmer). The radioactivity retained on the filters was measured by using the TopCount-NXT reader (Packard).

[3] abbreviates: Table 2, 5 nM 3H-SB222200, CHO membranes, read-out: Competitive binding assay with human NK-3 receptor hNK-3 (Ki).
[4] abbreviates: Table 3 (selectivity table), read-out: hNK-3 (Ki).

Chain of human NK-2 receptor (P21452 whole entry): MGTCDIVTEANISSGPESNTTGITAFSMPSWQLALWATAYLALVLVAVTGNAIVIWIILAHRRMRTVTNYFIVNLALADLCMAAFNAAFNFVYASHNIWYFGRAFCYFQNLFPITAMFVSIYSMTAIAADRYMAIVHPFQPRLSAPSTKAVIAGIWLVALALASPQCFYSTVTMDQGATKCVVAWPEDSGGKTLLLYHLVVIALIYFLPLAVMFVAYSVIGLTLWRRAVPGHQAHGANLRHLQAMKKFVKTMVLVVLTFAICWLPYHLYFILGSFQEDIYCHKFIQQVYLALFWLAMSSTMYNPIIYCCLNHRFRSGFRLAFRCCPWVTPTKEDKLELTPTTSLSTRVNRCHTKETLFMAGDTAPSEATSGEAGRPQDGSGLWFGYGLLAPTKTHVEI
Chain of human NK-1 receptor (P25103 whole entry): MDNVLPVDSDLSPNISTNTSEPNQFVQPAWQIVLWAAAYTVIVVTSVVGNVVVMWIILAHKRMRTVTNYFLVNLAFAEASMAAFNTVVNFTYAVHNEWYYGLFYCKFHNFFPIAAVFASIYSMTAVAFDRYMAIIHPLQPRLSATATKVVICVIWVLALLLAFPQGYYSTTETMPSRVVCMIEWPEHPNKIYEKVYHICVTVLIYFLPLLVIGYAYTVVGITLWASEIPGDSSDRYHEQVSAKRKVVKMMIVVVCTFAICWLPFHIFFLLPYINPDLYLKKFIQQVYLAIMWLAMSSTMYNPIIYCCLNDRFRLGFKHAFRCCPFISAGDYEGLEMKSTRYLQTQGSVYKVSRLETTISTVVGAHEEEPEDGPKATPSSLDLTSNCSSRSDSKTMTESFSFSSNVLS

The term pIC50 denotes the negative decadic logarithm of the IC50, by convention in mol/L. The term pKi denotes the negative decadic logarithm of the Ki, by convention in mol/L. For `Cc1nsc(-c2nnc3n2CCN(C(=O)c2ccc(F)cc2)C3C)n1` (racemic) [Compound 14, (4-fluorophenyl)(8-methyl-3-(3-methyl-1,2,4-thiadiazol-5-yl)-5,6-dihydro-[1,2,4]triazolo[4,3-a]pyrazin-7(8H)-yl)methanone], in the series with plasma protein, the “Exposure (% rPPB), bound drug fraction to plasma protein” value (“Exposure (% rPPB), bound drug fraction” for short) turned out to be 21%. In addition, the pIC50 on human NK-3 receptor [1] is 7.24. In addition, the pKi is 7.38 on human NK-3 receptor [2] (setting [3]), 7.38 at human NK-3 receptor [2] (setting [4]), less than 4.52 on human NK-2 receptor and less than 4.52 on human NK-1 receptor.
Take `Cc1nsc(-c2nnc3n2CCN(C(=O)c2cccc(Cl)c2)[C@@H]3C)n1` [Compound 16, (R)-(3-chlorophenyl)(8-methyl-3-(3-methyl-1,2,4-thiadiazol-5-yl)-5,6-dihydro-[1,2,4]triazolo[4,3-a]pyrazin-7(8H)-yl)methanone]: the “Exposure (% rPPB), bound drug fraction” value with plasma protein is listed as 36%. Also, on human NK-3 receptor [1], the pIC50 was 7.15. Further, the pKi at human NK-3 receptor [2] (setting [3]) is 7.31; on human NK-3 receptor [2] (setting [4]) it was 7.31; on human NK-2 receptor, 4.43; at human NK-1 receptor it was less than 4.52.
With `Cc1nsc(-c2nnc3n2CCN(C(=O)c2cc(F)c(F)c(F)c2)[C@@H]3C)n1` [Compound 7, (R)-(8-methyl-3-(3-methyl-1,2,4-thiadiazol-5-yl)-5,6-dihydro-[1,2,4]triazolo[4,3-a]pyrazin-7(8H)-yl)(3,4,5-trifluorophenyl)methanone], in the series with plasma protein, the “Exposure (% rPPB), bound drug fraction” value is reported as 26%. Also, the negative logarithm of the IC50 (pIC50) on human NK-3 receptor [1] was 7.52. Further, the pKi at human NK-3 receptor [2] (setting [3]) was 7.59; at human NK-3 receptor [2] (setting [4]) it was 7.59; on human NK-2 receptor, 4.44; on human NK-1 receptor it was less than 4.52.
As for `Cc1nsc(-c2nnc3n2CCN(C(=O)c2cc(F)cc(F)c2)[C@@H]3C)n1` [Compound 17, (R)-(3,5-difluorophenyl)(8-methyl-3-(3-methyl-1,2,4-thiadiazol-5-yl)-5,6-dihydro-[1,2,4]triazolo[4,3-a]pyrazin-7(8H)-yl)methanone], the “Exposure (% rPPB), bound drug fraction” value in the series on plasma protein was 24%. Further, on human NK-3 receptor [1], the pIC50 was 7.30. Moreover, the pKi was 7.29 at human NK-3 receptor [2] (setting [3]), 7.29 on human NK-3 receptor [2] (setting [4]), less than 4.52 at human NK-2 receptor and less than 4.52 on human NK-1 receptor.
On to `COc1cc(C(=O)N2CCn3c(-c4nc(C)ns4)nnc3[C@H]2C)ccc1F` [Compound 25, (R)-(4-fluoro-3-methoxyphenyl)(8-methyl-3-(3-methyl-1,2,4-thiadiazol-5-yl)-5,6-dihydro-[1,2,4]triazolo[4,3-a]pyrazin-7(8H)-yl)methanone], for which, in the series with plasma protein, the “Exposure (% rPPB), bound drug fraction” value was determined as 19%. Further, the pIC50 at human NK-3 receptor [1] was 6.96. Further, the pKi is 7.07 on human NK-3 receptor [2] (setting [3]), 7.07 at human NK-3 receptor [2] (setting [4]), less than 4.52 on human NK-2 receptor and less than 4.52 on human NK-1 receptor.
As to `C[C@@H]1c2nnc(-c3nc(C(C)(F)F)no3)n2CCN1C(=O)c1ccc(F)cc1` [Compound 43, (R)-(3-(3-(1,1-difluoroethyl)-1,2,4-oxadiazol-5-yl)-8-methyl-5,6-dihydro-[1,2,4]triazolo[4,3-a]pyrazin-7(8H)-yl)(4-fluorophenyl)methanone], in the series with plasma protein, the “Exposure (% rPPB), bound drug fraction” value came to 47%. In addition, the pIC50 on human NK-3 receptor [1] is 6.87. The pKi on human NK-3 receptor [2] (setting [3]) is 7.23; on human NK-3 receptor [2] (setting [4]) it was 7.23; at human NK-2 receptor, less than 4.52; on human NK-1 receptor, less than 4.52.
Turning to `Cc1ccc(C(=O)N2CCn3c(-c4nc(C)ns4)nnc3[C@H]2C)cc1` [Compound 19, (R)-(8-methyl-3-(3-methyl-1,2,4-thiadiazol-5-yl)-5,6-dihydro-[1,2,4]triazolo[4,3-a]pyrazin-7(8H)-yl)(p-tolyl)methanone], in the series with plasma protein, the “Exposure (% rPPB), bound drug fraction” value came out at 51%. For the same molecule, on human NK-3 receptor [1], the pIC50 is 6.96. In addition, the pKi is 7.25 at human NK-3 receptor [2] (setting [3]), 7.25 on human NK-3 receptor [2] (setting [4]), less than 4.52 at human NK-2 receptor and less than 4.52 on human NK-1 receptor.
Turning to `Cc1nsc(-c2nnc3n2CCN(C(=O)c2ccc(Cl)c(F)c2)C3C)n1` (racemic) [Compound 36, (4-chloro-3-fluorophenyl)(8-methyl-3-(3-methyl-1,2,4-thiadiazol-5-yl)-5,6-dihydro-[1,2,4]triazolo[4,3-a]pyrazin-7(8H)-yl)methanone], in the series on plasma protein, the “Exposure (% rPPB), bound drug fraction” value worked out at 60%. For the same molecule, on human NK-3 receptor [1], the pIC50 was 7.24. The pKi at human NK-3 receptor [2] (setting [3]) is 7.37; at human NK-3 receptor [2] (setting [4]), 7.37; on human NK-2 receptor it was 4.44; on human NK-1 receptor, less than 4.52.
Turning to `CC[C@@H]1c2nnc(-c3nc(C)ns3)n2CCN1C(=O)c1ccc(F)cc1` [Compound 22, (R)-(8-ethyl-3-(3-methyl-1,2,4-thiadiazol-5-yl)-5,6-dihydro-[1,2,4]triazolo[4,3-a]pyrazin-7(8H)-yl)(4-fluorophenyl)methanone], the “Exposure (% rPPB), bound drug fraction” value with plasma protein is reported as 27%. Also, the pIC50 on human NK-3 receptor [1] was 6.89. In addition, the pKi at human NK-3 receptor [2] (setting [3]) is 7.16; at human NK-3 receptor [2] (setting [4]), 7.16; on human NK-2 receptor, less than 4.52; at human NK-1 receptor, less than 4.52.
As to `Cc1nsc(-c2nnc3n2CCN(C(=O)c2cc(F)c(F)c(F)c2F)[C@@H]3C)n1` [Compound 10, (R)-(8-methyl-3-(3-methyl-1,2,4-thiadiazol-5-yl)-5,6-dihydro-[1,2,4]triazolo[4,3-a]pyrazin-7(8H)-yl)(2,3,4,5-tetrafluorophenyl)methanone], in the series with plasma protein, the “Exposure (% rPPB), bound drug fraction” value was 30%. In addition, the pIC50 on human NK-3 receptor [1] was 7.25. Also, the pKi on human NK-3 receptor [2] (setting [3]) was 7.51; at human NK-3 receptor [2] (setting [4]), 7.51; on human NK-2 receptor, 4.31; on human NK-1 receptor it was less than 4.52.
As for `Cc1nsc(-c2nnc3n2CCN(C(=O)c2cccc(F)c2)[C@@H]3C)n1` [Compound 15, (R)-(3-fluorophenyl)(8-methyl-3-(3-methyl-1,2,4-thiadiazol-5-yl)-5,6-dihydro-[1,2,4]triazolo[4,3-a]pyrazin-7(8H)-yl)methanone], in the series on plasma protein, the “Exposure (% rPPB), bound drug fraction” value turned out to be 20%. Besides, at human NK-3 receptor [1], the pIC50 is 7.30. Also, the pKi is 7.35 at human NK-3 receptor [2] (setting [3]), 7.35 on human NK-3 receptor [2] (setting [4]), less than 4.52 at human NK-2 receptor and less than 4.52 at human NK-1 receptor.
